According to ChEMBL document CHEMBL1152400, “Tetrahydrocarbazole amides with potent activity against human papillomaviruses” (Bioorg Med Chem Lett, 2009):

What was measured:
Cytochrome P450 2D6 = Cytochrome P450 2D6 (Homo sapiens, UniProt P10635); assay: Inhibition of CYP2D6; format: ADME
[1] = tested on: Human papillomavirus type 16; assay: Antiviral activity against Human papillomavirus 16 infected in human W12-20850 cells by hybrid capture method; format: functional, organism-based; details: Human papillomavirus 16, W12-20850
[2] = Cytotoxicity against HFF cells; format: cell-based; details: human
[3] = biological target: Voltage-gated inwardly rectifying potassium channel KCNH2 (Homo sapiens, UniProt Q12809)
Sequence of Voltage-gated inwardly rectifying potassium channel KCNH2 (Q12809 whole entry): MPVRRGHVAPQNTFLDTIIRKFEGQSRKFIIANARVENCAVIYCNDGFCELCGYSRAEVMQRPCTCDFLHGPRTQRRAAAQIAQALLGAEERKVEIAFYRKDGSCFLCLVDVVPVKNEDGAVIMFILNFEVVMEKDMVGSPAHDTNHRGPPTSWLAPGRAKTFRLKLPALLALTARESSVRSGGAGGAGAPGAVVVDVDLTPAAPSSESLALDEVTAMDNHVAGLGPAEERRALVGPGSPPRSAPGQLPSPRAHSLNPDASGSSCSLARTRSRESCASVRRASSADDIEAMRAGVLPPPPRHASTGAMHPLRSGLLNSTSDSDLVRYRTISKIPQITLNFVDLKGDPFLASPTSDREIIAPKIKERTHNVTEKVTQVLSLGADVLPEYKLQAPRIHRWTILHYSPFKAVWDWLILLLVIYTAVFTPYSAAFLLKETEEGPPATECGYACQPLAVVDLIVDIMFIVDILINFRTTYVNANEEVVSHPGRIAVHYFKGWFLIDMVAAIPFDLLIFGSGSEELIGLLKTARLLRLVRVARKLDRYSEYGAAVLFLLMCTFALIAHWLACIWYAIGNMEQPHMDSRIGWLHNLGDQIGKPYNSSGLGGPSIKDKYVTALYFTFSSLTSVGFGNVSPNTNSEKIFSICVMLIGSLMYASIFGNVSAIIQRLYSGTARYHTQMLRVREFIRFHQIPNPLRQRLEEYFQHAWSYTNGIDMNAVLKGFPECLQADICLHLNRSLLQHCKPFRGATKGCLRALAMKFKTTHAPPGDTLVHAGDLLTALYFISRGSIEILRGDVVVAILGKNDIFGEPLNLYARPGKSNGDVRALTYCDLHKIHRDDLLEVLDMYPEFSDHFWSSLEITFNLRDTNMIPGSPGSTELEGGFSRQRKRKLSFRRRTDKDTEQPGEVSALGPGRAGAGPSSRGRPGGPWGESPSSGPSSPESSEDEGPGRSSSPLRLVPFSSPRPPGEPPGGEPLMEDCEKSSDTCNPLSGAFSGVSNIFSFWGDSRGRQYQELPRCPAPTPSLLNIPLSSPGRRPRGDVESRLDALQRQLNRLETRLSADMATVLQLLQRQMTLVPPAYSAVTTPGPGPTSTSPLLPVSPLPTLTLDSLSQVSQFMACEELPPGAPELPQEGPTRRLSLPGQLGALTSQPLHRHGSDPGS

[4] = Half life in monkey at 5 mg/kg; format: ADME, organism-based, Macaca mulatta; parameters: dose 5 mg/kg; details: rhesus monkey, in vivo
[5] = Clearance in rat at 2 mg/kg, iv; format: ADME, organism-based; parameters: dose 2 mg/kg, route intravenous; details: in vivo
[6] = Clearance in monkey at 2 mg/kg, iv; format: ADME, organism-based, Macaca mulatta; parameters: dose 2 mg/kg, route intravenous; details: rhesus monkey, in vivo
[7] = Clearance in dog at 2 mg/kg, iv; format: ADME, organism-based, Canis lupus familiaris; parameters: dose 2 mg/kg, route intravenous; details: in vivo
[8] = Volume of distribution at steady state in rat at 2 mg/kg, iv; format: ADME, organism-based; parameters: dose 2 mg/kg, route intravenous; details: in vivo, read-out: Vdss
[9] = Half life in dog at 5 mg/kg; format: ADME, organism-based, Canis lupus familiaris; parameters: dose 5 mg/kg; details: in vivo
[10] = Volume of distribution at steady state in monkey at 2 mg/kg, iv; format: ADME, organism-based, Macaca mulatta; parameters: dose 2 mg/kg, route intravenous; details: rhesus monkey, in vivo, read-out: Vdss
[11] = Oral bioavailability in dog at 5 mg/kg; format: ADME, organism-based, Canis lupus familiaris; details: in vivo
[12] = Volume of distribution at steady state in dog at 2 mg/kg, iv; format: ADME, organism-based, Canis lupus familiaris; parameters: dose 2 mg/kg, route intravenous; details: in vivo, read-out: Vdss
[13] = Oral bioavailability in rat at 10 mg/kg; format: ADME, organism-based; details: in vivo
[14] = Half life in rat at 10 mg/kg; format: ADME, organism-based; parameters: dose 10 mg/kg; details: in vivo
[15] = Oral bioavailability in monkey at 5 mg/kg; format: ADME, organism-based, Macaca mulatta; details: rhesus monkey, in vivo
[16] = Bioavailability in rat; format: ADME, organism-based; details: in vivo

Sequence of Cytochrome P450 2D6 (P10635 whole entry): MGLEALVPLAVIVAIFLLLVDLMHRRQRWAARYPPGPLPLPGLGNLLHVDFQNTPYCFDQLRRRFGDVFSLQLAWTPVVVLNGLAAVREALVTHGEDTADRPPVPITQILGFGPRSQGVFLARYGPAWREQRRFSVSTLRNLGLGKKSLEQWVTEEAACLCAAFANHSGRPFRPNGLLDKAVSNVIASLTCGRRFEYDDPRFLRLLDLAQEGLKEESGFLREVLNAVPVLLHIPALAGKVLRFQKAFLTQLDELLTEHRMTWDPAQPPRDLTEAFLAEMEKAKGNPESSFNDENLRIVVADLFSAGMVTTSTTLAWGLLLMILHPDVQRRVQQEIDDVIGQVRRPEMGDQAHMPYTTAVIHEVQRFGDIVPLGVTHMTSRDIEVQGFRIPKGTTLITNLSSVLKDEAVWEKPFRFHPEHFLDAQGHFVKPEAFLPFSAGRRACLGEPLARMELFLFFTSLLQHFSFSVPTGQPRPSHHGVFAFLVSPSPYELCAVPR

Work on C[C@@H](N[C@@H]1CCCc2c1[nH]c1ccc(Br)cc21)c1ccccc1 yielded an IC50 (Cytochrome P450 2D6) of 0.16 µM.
Compound O=C(NC1CCCc2c1[nH]c1ccc(Br)cc21)c1ccccc1 (stereo not given) has an IC50 [1] of 0.03 µM and a CC50 [2] of over 20 µM.
Work on O=C(NC1CCCc2c1[nH]c1ccc(Br)cc21)OCc1ccccc1 (stereo not given) yielded an IC50 [1] of 0.045 µM and a CC50 [2] of over 20 µM.
Compound O=C(N[C@@H]1CCCc2c1[nH]c1ccc(Cl)cc21)c1ccccc1 has an IC50 [1] of 0.02 µM and a CC50 [2] of 26 µM.
Compound O=C(N[C@@H]1CCCc2c1[nH]c1ccc(Cl)cc21)c1ccccc1F has an IC50 [3] of over 20 µM, an IC50 [1] of 0.008 µM and a CC50 [2] of 24 µM. For the same compound, the IC50 (Cytochrome P450 2D6) was over 20 µM.
O=C(N[C@H]1CCCc2c1[nH]c1ccc(Br)cc21)c1ccccc1 gave an IC50 [1] of 5.7 µM and a CC50 [2] of 52 µM.
O=C(N[C@@H]1CCCc2c1[nH]c1ccc(Cl)cc21)c1ccccn1 gave a half-life [4] of 3.6 h, a clearance [5] of 13.1 mL/min/kg and a clearance [6] of 1.1 mL/min/kg. For the same compound, the clearance [7] was 5 mL/min/kg, the Vd [8] was 1.6 L/kg and the half-life [9] was 9.5 h. The Vd [10] was 0.13 L/kg, the bioavailability [11] was 35% and the Vd [12] was 1.7 L/kg. For the same compound, the IC50 [1] was 0.005 µM, the bioavailability [13] was 56% and the CC50 [2] was 16 µM. For the same compound, the half-life [14] was 4.1 h and the bioavailability [15] was 56%.
For Brc1ccc2[nH]c3c(c2c1)CCCC3Nc1ccccc1 (stereo not given), the IC50 [1] was 0.01 µM, the bioavailability [16] was under 5% and the CC50 [2] was 50.8 µM.
With O=C(NC1CCCc2c1[nH]c1ccc(Br)cc21)C1CCCCC1 (stereo not given) the IC50 [1] was 0.4 µM and the CC50 [2] was 50 µM.
O=C(Cc1ccccc1)NC1CCCc2c1[nH]c1ccc(Br)cc21 (stereo not given) showed an IC50 [1] of 0.58 µM and a CC50 [2] of over 50 µM.
CS(=O)(=O)NC1CCCc2c1[nH]c1ccc(Br)cc21 (stereo not given) gave an IC50 [1] of 2.26 µM and a CC50 [2] of over 50 µM.
Cc1ccccc1C(=O)NC1CCCc2c1[nH]c1ccc(Br)cc21 (stereo not given) gave an IC50 [1] of 0.5 µM and a CC50 [2] of 40 µM.
Compound O=C(N[C@H]1CCCc2c1[nH]c1ccc(Cl)cc21)c1ccccc1 has an IC50 [1] of 11.3 µM and a CC50 [2] of 55 µM.
O=C(N[C@@H]1CCCc2c1[nH]c1ccc(Br)cc21)c1ccccc1 gave an IC50 [1] of 0.008 µM and a CC50 [2] of 39 µM.
For Brc1ccc2[nH]c3c(c2c1)CCCC3Nc1ccccn1 (stereo not given), the IC50 [1] was 0.04 µM and the CC50 [2] was 20.7 µM.
O=C(/C=C/c1ccccc1)NC1CCCc2c1[nH]c1ccc(Br)cc21 (stereo not given) gave an IC50 [1] of 0.32 µM and a CC50 [2] of over 40 µM.
Brc1ccc2[nH]c3c(c2c1)CCCC3Nc1ncccn1 (stereo not given) gave an IC50 [1] of 0.09 µM and a CC50 [2] of 89.5 µM.
O=C(CCc1ccccc1)NC1CCCc2c1[nH]c1ccc(Br)cc21 (stereo not given) showed an IC50 [1] of 1.2 µM and a CC50 [2] of over 50 µM.
In the case of CC(=O)NC1CCCc2c1[nH]c1ccc(Br)cc21 (stereo not given), the IC50 [1] is reported as 12.9 µM and the CC50 [2] is reported as over 50 µM.
For O=C(N[C@H]1CCCc2c1[nH]c1ccc(Cl)cc21)c1ccccc1F, the IC50 [1] was 2.1 µM and the CC50 [2] was 36 µM.
Compound Cc1ccc(S(=O)(=O)NC2CCCc3c2[nH]c2ccc(Br)cc32)cc1 (stereo not given) has an IC50 [1] of 0.024 µM and a CC50 [2] of over 20 µM.
In the case of O=C(N[C@H]1CCCc2c1[nH]c1ccc(Cl)cc21)c1ccccn1, the IC50 [1] is reported as 9 µM and the CC50 [2] is reported as 61 µM.
In the case of Cc1cccc(C(=O)NC2CCCc3c2[nH]c2ccc(Br)cc32)c1 (racemic), the IC50 [1] is reported as 0.024 µM and the CC50 [2] is reported as 41 µM.
In the case of COc1cccc(C(=O)NC2CCCc3c2[nH]c2ccc(Br)cc32)c1 (racemic), the IC50 [1] is reported as 0.021 µM and the CC50 [2] is reported as 26 µM.
Compound O=C(NC1CCCc2c1[nH]c1ccc(Br)cc21)c1ccccn1 (racemic) has an IC50 [1] of 0.005 µM and a CC50 [2] of 72 µM.
With COc1ccc(C(=O)NC2CCCc3c2[nH]c2ccc(Br)cc32)cc1 (racemic) the IC50 [1] was 0.017 µM and the CC50 [2] was 88 µM.
With O=C(NC1CCCc2c1[nH]c1ccc(Br)cc21)c1cccnc1 (racemic) the IC50 [1] was 0.19 µM and the CC50 [2] was 100 µM.
For Cc1ccc(C(=O)NC2CCCc3c2[nH]c2ccc(Br)cc32)cc1 (racemic), the IC50 [1] was 0.01 µM and the CC50 [2] was 87 µM.
With O=C(NC1CCCc2c1[nH]c1ccc(Br)cc21)c1ccc(F)cc1 (racemic) the IC50 [1] was 0.044 µM and the CC50 [2] was 47 µM.
Compound O=C(NC1CCCc2c1[nH]c1ccc(Br)cc21)c1ccncc1 (racemic) has an IC50 [1] of 0.2 µM and a CC50 [2] of 100 µM.
Compound O=C(NC1CCCc2c1[nH]c1ccc(Br)cc21)c1cccc(F)c1 (racemic) has an IC50 [1] of 0.018 µM and a CC50 [2] of 65 µM.
With COc1ccccc1C(=O)NC1CCCc2c1[nH]c1ccc(Br)cc21 (racemic) the IC50 [1] was 21 µM and the CC50 [2] was 100 µM.
With O=C(NC1CCCc2c1[nH]c1ccc(Br)cc21)c1ccccc1F (racemic) the IC50 [1] was 0.008 µM and the CC50 [2] was 49 µM.
